Key:
[1] = biological target: T1, Cyclin-dependent kinase 11A (Homo sapiens) (UniProt Q9UQ88); assay: Selectivity interaction (Kinase panel (KiNativ target engagement assay in Jurkat cells)) EUB0001635a CDK11A; type: cell-based; details: Selectivity number of off-targets 0.0, Selectivity number of targets 233.0, Source Knowledge https://www.sciencedirect.com/science/article/pii/S2451945619300674?via%3Dihub, at 1 µM
T1 sequence (whole entry): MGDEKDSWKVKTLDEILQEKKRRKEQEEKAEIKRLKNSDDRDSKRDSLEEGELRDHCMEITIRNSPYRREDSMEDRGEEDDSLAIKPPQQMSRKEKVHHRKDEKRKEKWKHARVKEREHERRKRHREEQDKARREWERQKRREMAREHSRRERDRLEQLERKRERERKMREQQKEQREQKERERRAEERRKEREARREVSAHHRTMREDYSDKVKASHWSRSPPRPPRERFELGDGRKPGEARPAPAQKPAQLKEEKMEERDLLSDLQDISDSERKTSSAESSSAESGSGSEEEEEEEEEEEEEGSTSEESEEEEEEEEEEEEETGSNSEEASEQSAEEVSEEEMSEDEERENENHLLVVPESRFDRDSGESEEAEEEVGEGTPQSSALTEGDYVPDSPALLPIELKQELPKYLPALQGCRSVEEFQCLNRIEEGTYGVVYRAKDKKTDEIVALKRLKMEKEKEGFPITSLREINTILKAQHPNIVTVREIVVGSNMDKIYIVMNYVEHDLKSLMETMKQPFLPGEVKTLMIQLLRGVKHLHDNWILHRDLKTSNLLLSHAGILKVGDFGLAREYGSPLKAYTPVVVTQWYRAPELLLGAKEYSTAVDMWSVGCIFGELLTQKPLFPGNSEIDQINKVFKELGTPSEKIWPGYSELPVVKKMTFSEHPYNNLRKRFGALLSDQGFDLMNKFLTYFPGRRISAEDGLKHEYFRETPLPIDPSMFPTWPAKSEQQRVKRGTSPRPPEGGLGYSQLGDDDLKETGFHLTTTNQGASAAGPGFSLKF

[2] = biological target: Tyrosine-protein kinase JAK1 (Homo sapiens, UniProt P23458); assay: Selectivity interaction (KinomeScan (DiscoverX)) EUB0000695a JAK1; details: at 100 nM
[3] = biological target: SRSF protein kinase 2 (Homo sapiens) (UniProt P78362); assay: Selectivity interaction (KinomeScan (DiscoverX)) EUB0000666a SRPK2; details: at 10 µM
Sequence of SRSF protein kinase 2 (Homo sapiens) (P78362 whole entry, looked up): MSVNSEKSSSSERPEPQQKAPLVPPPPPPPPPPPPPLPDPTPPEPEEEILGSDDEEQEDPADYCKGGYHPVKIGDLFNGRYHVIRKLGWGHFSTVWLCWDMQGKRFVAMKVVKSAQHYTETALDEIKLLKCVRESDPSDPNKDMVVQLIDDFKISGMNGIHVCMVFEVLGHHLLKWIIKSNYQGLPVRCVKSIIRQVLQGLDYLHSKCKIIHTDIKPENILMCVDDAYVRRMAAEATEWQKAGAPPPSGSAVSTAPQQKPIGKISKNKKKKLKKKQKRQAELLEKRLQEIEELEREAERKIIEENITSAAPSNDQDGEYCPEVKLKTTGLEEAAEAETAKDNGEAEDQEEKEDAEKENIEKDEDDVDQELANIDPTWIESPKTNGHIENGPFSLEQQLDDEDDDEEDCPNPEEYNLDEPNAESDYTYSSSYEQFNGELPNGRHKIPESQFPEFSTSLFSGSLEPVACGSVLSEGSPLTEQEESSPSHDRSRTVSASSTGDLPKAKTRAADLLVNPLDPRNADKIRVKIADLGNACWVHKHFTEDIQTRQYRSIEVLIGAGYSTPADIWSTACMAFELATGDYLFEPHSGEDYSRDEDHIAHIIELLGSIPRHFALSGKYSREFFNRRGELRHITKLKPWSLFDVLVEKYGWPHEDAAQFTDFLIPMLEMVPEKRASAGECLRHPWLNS

[4] = biological target: Atypical kinase COQ8A, mitochondrial (Homo sapiens, UniProt Q8NI60); details: at 10 µM
Sequence of Atypical kinase COQ8A, mitochondrial (Q8NI60 163-647 limits assumed): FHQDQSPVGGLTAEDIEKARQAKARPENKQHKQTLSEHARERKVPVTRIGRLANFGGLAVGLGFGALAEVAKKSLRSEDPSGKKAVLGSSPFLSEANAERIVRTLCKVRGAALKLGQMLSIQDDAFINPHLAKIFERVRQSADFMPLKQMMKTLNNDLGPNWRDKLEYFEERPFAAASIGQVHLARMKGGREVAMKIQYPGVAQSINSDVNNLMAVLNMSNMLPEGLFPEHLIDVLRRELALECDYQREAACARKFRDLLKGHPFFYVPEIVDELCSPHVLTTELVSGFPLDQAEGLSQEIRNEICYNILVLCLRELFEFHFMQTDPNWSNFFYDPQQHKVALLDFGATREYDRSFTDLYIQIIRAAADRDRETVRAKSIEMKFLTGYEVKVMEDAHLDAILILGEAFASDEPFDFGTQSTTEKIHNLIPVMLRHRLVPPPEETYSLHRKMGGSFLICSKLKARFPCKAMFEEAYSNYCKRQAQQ

[5] = biological target: T2, Dual specificity protein kinase TTK (Homo sapiens) (UniProt P33981); details: at 10 µM
T2 sequence (whole entry): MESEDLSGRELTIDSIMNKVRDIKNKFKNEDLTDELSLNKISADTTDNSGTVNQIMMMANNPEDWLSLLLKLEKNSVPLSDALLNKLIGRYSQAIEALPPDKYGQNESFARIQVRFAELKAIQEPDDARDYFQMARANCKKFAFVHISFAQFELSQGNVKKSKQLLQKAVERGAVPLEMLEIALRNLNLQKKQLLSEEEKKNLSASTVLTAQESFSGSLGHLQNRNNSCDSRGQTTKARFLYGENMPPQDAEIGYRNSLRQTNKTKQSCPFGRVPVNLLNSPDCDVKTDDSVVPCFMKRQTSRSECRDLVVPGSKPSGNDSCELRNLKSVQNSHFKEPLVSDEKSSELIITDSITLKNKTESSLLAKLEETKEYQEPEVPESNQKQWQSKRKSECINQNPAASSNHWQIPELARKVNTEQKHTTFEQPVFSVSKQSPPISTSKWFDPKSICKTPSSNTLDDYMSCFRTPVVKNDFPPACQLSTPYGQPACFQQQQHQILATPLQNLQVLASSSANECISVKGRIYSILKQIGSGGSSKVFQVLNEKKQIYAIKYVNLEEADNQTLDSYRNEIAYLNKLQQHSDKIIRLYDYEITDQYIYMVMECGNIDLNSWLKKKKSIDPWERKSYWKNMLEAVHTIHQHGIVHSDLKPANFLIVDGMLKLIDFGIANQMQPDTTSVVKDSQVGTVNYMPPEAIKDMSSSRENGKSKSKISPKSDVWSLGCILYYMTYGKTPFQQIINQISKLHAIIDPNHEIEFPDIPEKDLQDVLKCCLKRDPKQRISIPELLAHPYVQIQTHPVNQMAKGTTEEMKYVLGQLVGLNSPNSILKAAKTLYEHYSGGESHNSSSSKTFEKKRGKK

[6] = biological target: Protein arginine N-methyltransferase 1 (Homo sapiens, UniProt Q99873); assay: Selectivity interaction (Methyltransferase screen (radiometric assays, panel of 8 PRMTs, 21 protein lysine methyltransferases, 3 DNA methyltransferases, and one RNA methyltransferase)) EUB0000271b PRMT1
Sequence of Protein arginine N-methyltransferase 1 (Q99873 whole entry, looked up, canonical isoform): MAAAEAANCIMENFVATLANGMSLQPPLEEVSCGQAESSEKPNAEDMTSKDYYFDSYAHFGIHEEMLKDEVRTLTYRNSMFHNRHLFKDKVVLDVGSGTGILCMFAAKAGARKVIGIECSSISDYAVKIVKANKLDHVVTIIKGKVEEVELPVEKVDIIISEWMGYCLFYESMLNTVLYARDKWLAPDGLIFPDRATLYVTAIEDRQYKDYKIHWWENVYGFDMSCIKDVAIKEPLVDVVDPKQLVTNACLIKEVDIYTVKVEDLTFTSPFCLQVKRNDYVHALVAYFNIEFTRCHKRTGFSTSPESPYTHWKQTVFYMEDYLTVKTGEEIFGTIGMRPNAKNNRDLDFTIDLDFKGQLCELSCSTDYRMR

[7] = biological target: T3, Phosphorylase b kinase gamma catalytic chain, liver/testis isoform (Homo sapiens) (UniProt P15735); assay: Selectivity interaction (Upstate Kinase Profiler service (Millipore)) EUB0000056c PHKG2; details: at 1 µM
T3 sequence (whole entry): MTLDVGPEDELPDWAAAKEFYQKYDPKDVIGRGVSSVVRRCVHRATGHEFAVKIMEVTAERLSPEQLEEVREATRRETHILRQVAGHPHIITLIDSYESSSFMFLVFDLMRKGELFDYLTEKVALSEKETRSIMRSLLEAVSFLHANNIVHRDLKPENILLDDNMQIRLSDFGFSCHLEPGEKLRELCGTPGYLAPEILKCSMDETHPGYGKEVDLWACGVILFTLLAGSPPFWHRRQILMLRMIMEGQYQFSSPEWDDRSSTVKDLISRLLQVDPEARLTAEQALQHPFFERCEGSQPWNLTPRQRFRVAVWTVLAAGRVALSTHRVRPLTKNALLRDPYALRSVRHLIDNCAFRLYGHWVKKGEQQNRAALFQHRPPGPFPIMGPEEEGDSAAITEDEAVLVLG

[8] = biological target: Receptor tyrosine-protein kinase erbB-2 (Homo sapiens, UniProt P04626); assay: Selectivity interaction (SelectScreen profiling (Invitrogen)) EUB0000607a ERBB2; details: at 2 µM
Sequence of Receptor tyrosine-protein kinase erbB-2 (P04626 whole entry): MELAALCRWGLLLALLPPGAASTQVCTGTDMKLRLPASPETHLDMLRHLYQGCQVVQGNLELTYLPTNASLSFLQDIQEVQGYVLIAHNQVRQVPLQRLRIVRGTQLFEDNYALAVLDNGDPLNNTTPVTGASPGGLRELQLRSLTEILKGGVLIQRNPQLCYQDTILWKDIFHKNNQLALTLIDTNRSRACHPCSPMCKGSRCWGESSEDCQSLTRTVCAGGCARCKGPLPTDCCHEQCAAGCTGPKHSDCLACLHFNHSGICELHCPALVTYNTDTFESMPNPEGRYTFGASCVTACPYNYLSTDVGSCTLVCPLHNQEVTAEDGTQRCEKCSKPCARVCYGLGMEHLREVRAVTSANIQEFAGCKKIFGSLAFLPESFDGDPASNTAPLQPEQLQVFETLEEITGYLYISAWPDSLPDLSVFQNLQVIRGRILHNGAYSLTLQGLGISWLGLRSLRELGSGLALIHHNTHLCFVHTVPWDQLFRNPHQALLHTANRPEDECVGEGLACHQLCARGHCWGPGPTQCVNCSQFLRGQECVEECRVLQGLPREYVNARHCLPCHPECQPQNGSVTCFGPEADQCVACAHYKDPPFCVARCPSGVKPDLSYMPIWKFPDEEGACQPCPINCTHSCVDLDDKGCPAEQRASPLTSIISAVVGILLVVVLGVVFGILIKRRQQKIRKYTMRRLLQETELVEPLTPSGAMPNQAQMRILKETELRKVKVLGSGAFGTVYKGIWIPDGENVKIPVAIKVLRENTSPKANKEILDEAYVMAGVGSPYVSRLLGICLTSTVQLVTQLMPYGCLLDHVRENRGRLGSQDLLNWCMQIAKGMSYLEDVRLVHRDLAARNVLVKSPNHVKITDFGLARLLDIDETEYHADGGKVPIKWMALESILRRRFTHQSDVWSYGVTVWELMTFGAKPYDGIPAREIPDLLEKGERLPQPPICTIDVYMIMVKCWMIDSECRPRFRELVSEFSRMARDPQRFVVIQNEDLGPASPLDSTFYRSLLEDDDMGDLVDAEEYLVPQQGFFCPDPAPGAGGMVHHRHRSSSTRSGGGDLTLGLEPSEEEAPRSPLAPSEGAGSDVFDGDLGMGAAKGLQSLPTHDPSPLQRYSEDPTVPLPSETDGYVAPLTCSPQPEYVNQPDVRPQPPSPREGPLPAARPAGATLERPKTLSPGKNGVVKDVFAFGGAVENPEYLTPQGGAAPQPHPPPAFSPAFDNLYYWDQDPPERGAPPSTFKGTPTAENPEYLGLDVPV

[9] = biological target: Serine/threonine-protein kinase MRCK alpha (Homo sapiens) (UniProt Q5VT25); assay: Selectivity interaction (KinomeScan (DiscoverX)) EUB0000655a CDC42BPA; details: at 10 µM
Sequence of Serine/threonine-protein kinase MRCK alpha (Homo sapiens) (Q5VT25 whole entry): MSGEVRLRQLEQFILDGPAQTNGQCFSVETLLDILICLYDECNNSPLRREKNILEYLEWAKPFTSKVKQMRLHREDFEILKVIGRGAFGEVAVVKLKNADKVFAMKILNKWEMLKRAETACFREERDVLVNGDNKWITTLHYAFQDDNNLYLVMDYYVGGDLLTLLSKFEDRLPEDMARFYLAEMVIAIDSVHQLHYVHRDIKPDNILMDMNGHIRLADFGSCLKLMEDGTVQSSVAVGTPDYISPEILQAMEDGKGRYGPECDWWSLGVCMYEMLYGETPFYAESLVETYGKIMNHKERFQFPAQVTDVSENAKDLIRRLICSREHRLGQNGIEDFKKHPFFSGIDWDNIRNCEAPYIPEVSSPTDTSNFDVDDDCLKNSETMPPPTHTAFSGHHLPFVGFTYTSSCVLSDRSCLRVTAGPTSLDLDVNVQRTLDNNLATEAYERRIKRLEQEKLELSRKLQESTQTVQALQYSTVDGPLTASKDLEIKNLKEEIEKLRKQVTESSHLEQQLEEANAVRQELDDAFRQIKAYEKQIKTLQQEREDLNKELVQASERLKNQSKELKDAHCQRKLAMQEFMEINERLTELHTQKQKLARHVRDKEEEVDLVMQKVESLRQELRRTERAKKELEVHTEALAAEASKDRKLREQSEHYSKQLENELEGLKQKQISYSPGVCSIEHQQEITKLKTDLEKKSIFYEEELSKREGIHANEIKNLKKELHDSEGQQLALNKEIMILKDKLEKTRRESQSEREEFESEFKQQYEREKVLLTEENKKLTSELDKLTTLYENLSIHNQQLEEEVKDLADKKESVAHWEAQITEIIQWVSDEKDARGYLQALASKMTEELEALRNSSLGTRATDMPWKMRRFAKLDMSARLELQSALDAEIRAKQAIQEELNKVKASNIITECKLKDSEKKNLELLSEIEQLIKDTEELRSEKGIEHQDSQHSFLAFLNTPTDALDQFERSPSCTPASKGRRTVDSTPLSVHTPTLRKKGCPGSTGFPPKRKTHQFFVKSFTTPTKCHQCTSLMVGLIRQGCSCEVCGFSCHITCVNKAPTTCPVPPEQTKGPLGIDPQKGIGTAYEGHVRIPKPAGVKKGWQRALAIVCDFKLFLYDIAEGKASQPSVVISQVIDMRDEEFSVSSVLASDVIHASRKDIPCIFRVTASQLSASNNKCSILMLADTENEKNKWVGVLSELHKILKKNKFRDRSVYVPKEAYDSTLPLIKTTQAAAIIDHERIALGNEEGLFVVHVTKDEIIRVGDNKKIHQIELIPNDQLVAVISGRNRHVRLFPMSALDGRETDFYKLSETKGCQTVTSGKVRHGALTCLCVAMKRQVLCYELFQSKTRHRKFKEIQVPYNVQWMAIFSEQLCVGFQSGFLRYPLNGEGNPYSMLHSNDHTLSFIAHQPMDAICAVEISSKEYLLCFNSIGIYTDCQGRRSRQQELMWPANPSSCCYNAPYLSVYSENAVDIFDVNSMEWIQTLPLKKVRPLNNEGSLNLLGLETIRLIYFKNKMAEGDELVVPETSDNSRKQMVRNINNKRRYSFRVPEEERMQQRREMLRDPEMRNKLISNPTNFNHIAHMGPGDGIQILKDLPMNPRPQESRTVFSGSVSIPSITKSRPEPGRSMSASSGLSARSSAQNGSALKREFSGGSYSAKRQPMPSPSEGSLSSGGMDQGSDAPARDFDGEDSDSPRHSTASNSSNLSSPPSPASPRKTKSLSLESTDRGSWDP

[10] = biological target: Fibroblast growth factor receptor 1 (Homo sapiens, UniProt P11362); details: at 10 µM

C=CC(=O)Nc1ccc(C(=O)Nc2[nH]nc3c2CN(C(=O)N[C@H](CN(C)C)c2ccccc2)C3(C)C)cc1
% of engagement [1]: -0.8%

Cc1cc(F)c(C(=O)Nc2cccc(-c3nncn3C(C)C)n2)cc1-n1cnc(C2CC2)c1
% of control [2]: 60%

O=C(NOC[C@H](O)CO)c1ccc(F)c(F)c1Nc1ccc(I)cc1F
% of control [3]: 100%

Cc1cc([C@@H](C)Nc2ccccc2C(=O)O)c2nc(N3CCOCC3)cc(=O)n2c1 [AZD-6482]
% of control [4]: 86% | % of control [5]: 100%

Cc1cc(C)cc([C@@H]2c3cc(C)ccc3NC(=O)CN2C(=O)c2ccc(Br)s2)c1
% of activity ([6]; at 1 µM): 98.3% | % of activity ([6]; at 10 µM): 94.3%

Cc1ccc(-c2ccc3c(ccc4sc5c(c43)NC[C@@H](C)NC5=O)n2)cn1
% of inhibition [7]: 58%

CNC(=O)Nc1ccc(-c2nc(N3CC4CCC(C3)O4)c3cnn(C4CCC5(CC4)OCCO5)c3n2)cc1
% of inhibition [8]: 0%

CN(C)CCOc1ccc(-c2nc(-c3ccncc3)c(-c3ccc4c(c3)CC/C4=N\O)[nH]2)cc1
% of control [9]: 78%

CCN(CC)CCCCNc1ncc2cc(-c3cc(OC)cc(OC)c3)c(NC(=O)NC(C)(C)C)nc2n1
% of control [10]: 0.4%

Reference: ChEMBL document CHEMBL5465560, “Selectivity Literature for EUbOPEN Chemogenomic Library” (2024)
